Article PMC4114559, “Pigment Dispersing Factor Regulates Ecdysone Biosynthesis via Bombyx Neuropeptide G Protein Coupled Receptor-B2 in the Prothoracic Glands of Bombyx mori” (PLoS ONE, 2014)
“Also recorded” adds a separate entry of the source. Numbered stars: 1 amine (or outer) side, 2 acyl side, 3 side chain; on linkers, the order of the positions; unused ones are H or OH. Bridge positions count the residues as written; N and C are the ends. Square brackets hold non-standard residues; d marks the D form. Ends that are not written are not given here. Peptide text beside a SMILES is read from it. I, II: the chains in the order shown. Actinocin(9to1) = Cc1c2oc3c(C)ccc(C(=O)[*:1])c3nc-2c(C(=O)[*:2])c(N)c1=O; NMeV = CN[C@H](C(=O)O)C(C)C; Sar = CNCC(=O)O

Legend:
PGs of B. mori = assay: Effect of inhibitors on induced ecdysone biosynthesis in cultured PGs; assay type: cell-based, Bombyx mori; settings: 15 min pre-treatment, 3 hours; for effect of inhibitor on PDF-induced ecdysone biosynthesis: n = 10
Description: (§1) Dissected PGs were rinsed with Grace's insect culture medium (Gibco) and pre-cultured individually in 100 µl medium in 96-well plates (BD Falcon) at 25°C for 30 min. To evaluate the effect of extracellular Ca^2+ on ecdysone biosynthesis, lepidopteran saline and lepidopteran saline using NaCl as a replacement for CaCl2 were used. For the pharmacological analysis, the PG was pre-treated with the inhibitor for 15 min during the pre-culture period. Following this treatment, the PG was cultured in the desired conditions for the desired period (Ecdysone assay: 3 hours; cAMP assay: 30 min; and Protein phosphorylation assay: 15 min). Actinomycin D, H-89 and cycloheximide (CHX) were purchased from Sigma; Rapamycin was purchased from Santa Cruz Biotechnology; and LY294002 was purchased from Merck. H-89 was dissolved in water. The other inhibitors were dissolved in DMSO. A 1% volume of the appropriate inhibitor was added to the culture medium.
Prior to ecdysteroids extraction, the 100 µl of cultured medium was diluted with equal volume of MilliQ water. After that, 400 µl of 1-butanol was added to the sample, vortexed for 3 min and centrifuged at 1,000×g for 10 min at 4°C. The 1-butanol phase was transferred to a new tube, and the solvent was evaporated using a centrifugal concentrator. The dried samples were re-dissolved in 50 µl of pure methanol for the following analysis. Quantification of ecdysteroids using LC-MS/MS was performed as previously described with some modifications. Ecdysteroids were separated by reverse-phase HPLC using a PEGASIL C8 column (3 µm, 2×100 mm, Senshu-pak, Senshu-kagaku) with gradient elution of acetonitrile (ACN)/water at a flow rate of 0.2 mL min^−1 (0–3 min (ACN = 10–75%), 3–20 min (75–85%), 20–25 min (100%)), on a Prominence UFLC system (Shimadzu). The separated ecdysteroids were quantified with the QTRAP5500 MS/MS system (AB SCIEX) using MRM mode. For the quantitative analysis, standard curves were generated with concentrations of 0.98–1000 ng/ml.
Because PDF stimulated the increase in intracellular cAMP levels in the PGs, the activation of PKA is likely involved in the PDF signaling pathway. One of the pathways downstream of active PKA is cAMP response element-binding protein (CREB)-mediated transcriptional regulation. First, we evaluated the effect of PDF on the transcript level of known ecdysone biosynthetic enzymes (Nvd, Nm-g, Spo, Phm, Dib and Sad) using Q-PCR. […] Therefore, de novo transcription was not required for PDF-mediated ecdysone biosynthesis for at least 3 hours. […]
(§2) Figure 4 Signaling pathways involved in PDF-induced ecdysone biosynthesis. […] The transcript levels of nvd, nm-g, spo, phm, dib and sad were quantified with Q-PCR. […] Statistically significant differences were evaluated by Student's t-test (***P<0.001, **P<0.01). […]

4E-BP = assay: p-4E-BP level in cultured PGs (Western blot); assay type: cell-based, Bombyx mori; settings: PI3K inhibitor LY294002 50 µM; immunoblotting
Description: as §1, with “Actinomycin D, H-89 and cycloheximide (CHX) were purchased from Sigma; Rapamycin was purchased from Santa Cruz Biotechnology; and LY294002 was purchased from Merck. H-89 was dissolved in water. The other inhibitors were dissolved in DMSO. A 1% volume of the appropriate inhibitor was added to the culture medium.” left out
Dissected PGs were pre-cultured in Grace's culture medium for 30 min, then cultured with or without PDF or PTTH for 15 min. The cultured PGs were sonicated in 50 mM Tris-HCl (pH 6.8) with protease inhibitor cocktail (Complete, Roche) and phosphatase inhibitor cocktail (Wako), lysed in 1x SDS sample buffer excluding 2-mercaptoethanol (2ME) and bromophenol blue (BPB), and the protein concentration was measured using the BCA protein assay kit (Pierce). […]
as §2

PGs = settings: cited from earlier work
Excerpt: In many cases, a single hormone has multiple functions regulating many physiological phenomena. Thus, both the regulation of receptor expression in the target tissue and the regulation of hormone release are important for the hormone to only affect the target tissue at the appropriate time. In the case of PTTH, the titer of the hormone in the hemolymph is clearly correlated with the ecdysteroid titer ... || In insects, neuropeptide hormones affect the target tissue via humoral and neuronal pathways. […] The increase in intracellular cAMP is thought to be regulated by Ca^2+ signaling in the PTTH signaling pathway, [37]. […] PDF sig ... || (+ 1 further places)

C[C@@H]1C[C@@H]([C@H](O)CC2CC(=O)NC(=O)C2)C(=O)[C@@H](C)C1 [CHX, cycloheximide]
effect of inhibitor on PDF-induced ecdysone biosynthesis (PGs of B. mori; translation inhibitor CHX 0.2 mM): clearly inhibited ecdysone biosynthesis

O=S(=O)(NCCNC/C=C/c1ccc(Br)cc1)c1cccc2cnccc12 [H-89]
effect of inhibitor on PDF-induced ecdysone biosynthesis (PGs of B. mori; PKA inhibitor H-89 0.1 mM): clearly inhibited ecdysone biosynthesis; also recorded: inhibited PDF-induced ecdysone biosynthesis

O=c1cc(N2CCOCC2)oc2c(-c3ccccc3)cccc12 [LY294002, reference compound]
effect of inhibitor on phosphorylation of 4E-BP induced by PDF and PTTH (4E-BP): clearly suppressed the ecdysone biosynthesis and phosphorylation of 4E-BP induced by PDF and PTTH
effect of inhibitor on ecdysone biosynthesis induced by PDF and PTTH (PGs of B. mori; PI3K inhibitor LY294002 50 µM, n = 3 and 4): clearly suppressed the ecdysone biosynthesis

Cc1c2oc3c(C)ccc(C(=O)N[C@@H]4C(=O)N[C@H](C(C)C)C(=O)N5CCC[C@H]5C(=O)N(C)CC(=O)N(C)[C@@H](C(C)C)C(=O)O[C@@H]4C)c3nc-2c(C(=O)N[C@@H]2C(=O)N[C@H](C(C)C)C(=O)N3CCC[C@H]3C(=O)N(C)CC(=O)N(C)[C@@H](C(C)C)C(=O)O[C@@H]2C)c(N)c1=O [actinomycin D] (I: T[dV]P[Sar][NMeV] / II: T[dV]P[Sar][NMeV]; ester I:1-I:C, II:1-II:C; linker I:N-II:N via Actinocin(9to1))
effect of inhibitor on PDF-induced ecdysone biosynthesis (PGs of B. mori; transcription inhibitor ActD 10 µM): did not suppress PDF-induced ecdysone biosynthesis

CCCC(=O)Nc1ncnc2c1ncn2[C@@H]1O[C@@H]2COP(=O)(O)O[C@H]2[C@H]1OC(=O)CCC [dbcAMP, dibutyryl cyclic AMP, reference compound]
ecdysone biosynthesis in vitro (literature) (PGs; cell-permeable cAMP analog, in vitro, ref [27], [37]): can induce ecdysone biosynthesis in vitro
effect of a transcription inhibitor on PTTH- and dbcAMP-induced ecdysone biosynthesis (literature) (PGs; ref [39]): ecdysone biosynthesis was suppressed by a transcription inhibitor

diapause hormone: neuronal pathway-mediated tropic hormone (TDMKDESDRGAHSERGALWFGPRL; ends and bridges not checked; UniProt P09971 24-47, looked up) [reference compound]
EC50 (PGs; neuronal pathway-mediated tropic hormone, ref [32], read-out: EC50 of tropic hormone (literature)): 270 nM
